Data: PubChem BioAssay AID179 (DTP/NCI, 2004)
“And” between values parts separate entries of the source, which are not always exact repeats. Identical values can stand only once. The source made the active and inactive calls.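 The calls were made as follows: active = compounds giving half or more protection of infected cells from virus-caused growth loss, again on retest; inactive = the rest.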 Where a SMILES comes first, the peptide text is derived from it. The star is where a group is joined. Boc = CC(C)(C)OC(=O)*

System: CEM cells HIV-1 protection, formazan growth assay
Experiment: NCI AIDS Antiviral Assay
Conditions: for IC50: measured here: growth of uninfected CEM cells
How it was run: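 Soluble formazan readout of cell growth; CEM cells ± HIV-1; 5 drug concs. ≥50% protection → retest; ≥50% again = moderately active; reproducible 100% = confirmed active.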

## NC(=O)c1c([N+](=O)[O-])cc(C(F)(F)F)cc1[N+](=O)[O-]
  outcome: inactive

## CCOC(=O)/C(C#N)=C/c1ccccc1F
  EC50: > 309 µM
  IC50: > 309 µM

## COCCOCCOC(=O)C(CO)(CC(CO)(C(C)=O)C(=O)OCCOCCOC)C(C)=O (stereo unspecified)
  EC50: > 200 µM
  IC50: > 200 µM

## O=C(/C=C/c1cccs1)c1ccc(C(=O)/C=C/c2cccs2)cc1
  EC50: > 200 µM
  IC50: 45.7 µM

## c1ccc(N=C2SC3=NCCN3C2=Nc2ccccc2)cc1
  EC50: > 200 µM
  IC50: 8.32 µM

## CCSC(=O)N1c2ccc(OC)cc2C=CC1C#N (stereo unspecified)
  EC50: > 0.692 µM
  IC50: 0.0407 µM

## COc1c(-c2ccccc2)oc2c(CP(=O)(OC)OC)cccc2c1=O
  EC50: > 200 µM
  IC50: 56.2 µM

## Cc1cc(OP2(=O)Nc3ccccc3-c3ccccc3N2)ccc1Cl
  EC50: > 70.8 µM
  IC50: 1.26 µM

## O=C1OC(=O)C(=C\c2ccc3c(c2)OCO3)/C1=C/c1ccc2c(c1)OCO2
  outcome: inactive

## Cc1nc2ccc(F)cc2c2c1CCN2c1ccc(Cl)cc1
  EC50: > 100 µM
  IC50: 5.75 µM

## Cc1cc(C)c2c(c1)CC1(Cc3cc(C)c(C)cc3C1=O)C2=O (stereo unspecified)
  EC50: > 100 µM
  IC50: > 100 µM

## Nc1cc2nc(=O)cc3n2c(n1)SC3
  EC50: > 67.6 µM
  IC50: > 67.6 µM

## Clc1ccc(C2NCCNCc3ccccc32)cc1 (stereo unspecified)
  outcome: inactive

## Cc1cccc(C)c1NC(=O)CCc1nnc2s/c(=C\c3ccc(N(C)C)cc3)c(=O)n12
  EC50: > 1.7 µM
  IC50: > 1.7 µM

## COc1cc(C(=O)NCCS(=O)(=O)O)cc(OC)c1OC
  EC50: > 724 µM
  IC50: 631 µM

## CC(=O)Nc1ccc(-c2nnc(SCC(=O)Nc3cccc(Cl)c3)o2)cc1
  EC50: > 46.8 µM
  IC50: 7.59 µM

## O=C1/C(=C\c2ccc(Cl)cc2Cl)Sc2scc(-c3cccc([N+](=O)[O-])c3)[n+]21
  outcome: inactive

## CC(C)(C)COC1C2(OCCO2)C2CCC1(C)C2(C)C (stereo unspecified)
  EC50: > 200 µM
  IC50: > 200 µM

## CC/C(=N/OC(=O)N(CC)CC)c1ccccc1
  EC50: > 200 µM
  IC50: 117 µM

## COc1ccc(-c2nc3c(nc2-c2ccc(OC)cc2)C(N)=NS(=O)(=O)N3)cc1
  EC50: > 166 µM
  IC50: > 166 µM

## CCN(CC)CCC(=O)c1ccc(Oc2ccc(C)cc2)cc1
  EC50: > 200 µM
  IC50: 28.8 µM

## O=c1cc(N2CCCC2)[nH]c(=O)n1-c1ccccc1
  EC50: > 200 µM
  IC50: > 200 µM

## C[N+](C)(C)CC(=O)NC(=O)N/N=C\C(CC#N)CN(Cc1ccccc1)Cc1ccccc1 (stereo unspecified)
  EC50: > 74.1 µM
  IC50: > 74.1 µM

## O=C(Nc1ccccc1)N1CCN(C(=O)Nc2ccccc2)C1=S
  EC50: 195 µM
  IC50: > 200 µM

## C/C(CC(O)(C(F)(F)F)C(F)(F)F)=N\NC(N)=O
  EC50: > 200 µM
  IC50: > 200 µM

## C/C(=N\Nc1ccccc1)C(CN(C)C)C(c1ccccc1)c1c(O)c2ccccc2oc1=O (stereo unspecified)
  EC50: > 27.5 µM
  IC50: > 27.5 µM

## COc1cc2c(c(OC)c1OC)-c1ccc(SC)c(=O)cc1C(NC=O)CC2 (stereo unspecified)
  EC50: > 0.002 µM
  IC50: 0.0011 µM

## C[C@H]1C[C@H]2[C@@H]3CCC4=CC(=O)C=C[C@]4(C)[C@@]3(F)[C@@H](O)C[C@]2(C)[C@H]1O
  outcome: inactive

## Cc1ccc(-c2nc3n(c2/C=N\N=C(N)N)CCS3)cc1
  EC50: > 200 µM
  IC50: 29.5 µM

## Cc1ccc(-c2cc(-c3ccco3)c(C#N)c(=S)n2C2OC(CO)C(O)C(O)C2O)cc1 (stereo unspecified)
  EC50: > 200 µM
  IC50: 9.33 µM and 57.5 µM

## C=C1C(=O)OC2C[C@H](C)C3CC(=O)C(C)=C3CC12 (stereo partly specified)
  EC50: > 380 µM
  IC50: 6.61 µM

## Cc1cc(OP2(=O)NCc3ccncc3O2)ccc1Cl (stereo unspecified)
  EC50: > 200 µM
  IC50: > 200 µM

## CCN(CC)C(=O)CC12CCCCC1=Nc1ccccc12 (stereo unspecified)
  EC50: > 871 µM
  IC50: 550 µM

## O=C1NC2(CCN(Cc3ccccc3)CC2)Oc2ccccc21
  EC50: > 200 µM
  IC50: > 200 µM

## Cc1ccc2c(n1)NC(=O)C(Cc1ccccc1)(N=[N+]=[N-])C2=O (stereo unspecified)
  EC50: > 200 µM
  IC50: > 200 µM

## NNC(=O)c1ccccc1SSc1ccccc1C(=O)NN
  EC50: 0.537 µM
  IC50: 3.55 µM

## CCOC1NC(=O)Oc2ccccc21 (stereo unspecified)
  outcome: inactive

## CP1(=S)CC(Cl)=C2CCCCC21 (stereo unspecified)
  outcome: inactive

## N#Cc1nc(C(CO)N(Cc2ccccc2)C(=O)O)oc1N (stereo unspecified)
  EC50: > 200 µM
  IC50: > 200 µM

## CCOc1ccc2nc3nc(=O)[nH]c(C)c3c(NC(C)(CO)CO)c2c1
  EC50: > 200 µM
  IC50: > 200 µM

## O=c1c2c([nH]c3c1ccc1[nH]c4c(c(=O)c13)CCCC4)CCCC2
  EC50: > 42.7 µM
  IC50: > 42.7 µM

## O=C(CSCc1cc(S(=O)(=O)O)c2cccnc2c1O)Nc1ccc(/C=C/c2ccc(NC(=O)CSCc3cc(S(=O)(=O)O)c4cccnc4c3O)cc2S(=O)(=O)O)c(S(=O)(=O)O)c1
  EC50: > 200 µM
  IC50: > 200 µM

## CC(=O)C1c2ccccc2C(C(C)=O)(c2ccccc2)C1c1ccccc1 (stereo unspecified)
  EC50: > 200 µM
  IC50: 38 µM

## NNC(=O)CC(=O)Nc1ccccc1F
  EC50: > 1170 µM
  IC50: 871 µM

## O=C(NC1CCN(Cc2ccccc2)CC1)c1ccc(I)cc1
  EC50: > 200 µM
  IC50: 15.8 µM

## COc1ccc(N2C(=O)C(N3C(=O)C=CC3=O)C2C=O)cc1 (stereo unspecified)
  EC50: > 166 µM
  IC50: > 166 µM

## O=c1[nH]c2cccccc-2c1-c1nc2ccccc2[nH]1
  EC50: > 138 µM
  IC50: > 138 µM

## CCOC1C(CC/C=C\c2ccccc2)CCCCN1C(=O)OC(C)(C)C (stereo unspecified)
  EC50: > 251 µM
  IC50: > 251 µM

## Cc1ccc(SSc2nnnn2C)cc1
  EC50: > 200 µM
  IC50: 11 µM

## COc1ccc(NC(=O)Oc2ccc3c(C)cc(=O)oc3c2)c(OC)c1
  EC50: > 52.5 µM
  IC50: > 52.5 µM

## CCO/C=C(\C)CC1([N+](=O)[O-])C(=O)c2ccccc2C1=O
  outcome: inactive

## S=c1sc2c(Cl)ncnc2n1-c1ccccc1
  EC50: > 67.6 µM
  IC50: 3.63 µM

## CC(NC(=O)C(NC(=O)OC(C)(C)C)C(C)C)C(=O)NCC(=O)O (stereo not drawn) (Boc-Val-Ala-Gly-OH; configuration not given here)
  EC50: > 200 µM
  IC50: > 200 µM

## COc1ccc2nc(NC(=O)/C(C#N)=C/c3ccccc3)sc2c1
  EC50: > 200 µM
  IC50: 12 µM

## O=C(O)c1ccccc1C1c2ccc(Cl)cc2Oc2cc(Cl)ccc21
  EC50: > 10 µM
  IC50: > 10 µM

## CC(=O)Oc1ccc(Nn2c3ccccc3c3ccccc32)c(C)c1
  EC50: > 200 µM
  IC50: 11.7 µM

## Cc1ccc(N=N/C(=N/NC(=O)c2cc(Cl)ccc2O)c2ccc(N(CCC#N)CCC#N)cc2C)cc1
  EC50: > 200 µM
  IC50: 10.7 µM

## CC(=O)[O-].CC(=O)[O-].O=C(N/N=C/c1cc(Cl)cc(Cl)c1[OH2+])c1ccncc1.[Mn+2]
  outcome: inactive

## Cn1cnc([N+](=O)[O-])c1Sc1nc2ccccc2o1
  EC50: > 26.3 µM
  IC50: 2.75 µM

## O=C1c2ccccc2C2C1C(c1ccccc1)C1(Cc3ccccc3C1=O)C2c1ccccc1 (stereo unspecified)
  EC50: > 200 µM
  IC50: 38.9 µM

## O=C(C[N+]12CCC(O)C1C(CO)CC2)c1ccc(Br)cc1 (stereo unspecified)
  EC50: > 575 µM
  IC50: > 575 µM

## C[N+](C)(C)C(CSSCC(C(=O)[O-])[N+](C)(C)C)C(=O)[O-] (stereo unspecified)
  EC50: > 200 µM
  IC50: > 200 µM

## COc1ccc(C(=O)C(c2ccc(OC)cc2)C2(O)C(=O)Nc3c(Cl)cc(Cl)cc32)cc1 (stereo unspecified)
  EC50: > 39.8 µM
  IC50: > 39.8 µM

## COc1ccccc1N=C(N)N/N=C/c1c[nH]c2ccccc12
  outcome: inactive

## C[C@]12CC[C@H](OC(=O)/C=C\c3cccc(N(CCCl)CCCl)c3)CC1CC[C@@H]1C2CC[C@]2(C)NC(=O)CCC12 (stereo partly specified)
  outcome: inactive

## CCOC(=O)c1ccc(CS(=O)c2ccc(OC)cc2)c([N+](=O)[O-])c1 (stereo unspecified)
  EC50: > 100 µM
  IC50: 12.3 µM

## N#C/C(N)=C(\C#N)NC=NCc1ccccc1
  EC50: > 200 µM
  IC50: > 200 µM

## ONC1=Nc2ccccc2OCc2cc(Br)c(Br)cc2COc2ccccc2N=C1NO
  EC50: > 200 µM
  IC50: 10 µM

## COc1cc2c3c(c1)SCC(=O)N3CCN2
  EC50: > 200 µM
  IC50: > 100 µM

## CC(=O)C1=C(C)N2C(=NC3=C(CCc4ccccc43)C2c2ccc(Cl)cc2)S1 (stereo unspecified)
  EC50: > 200 µM
  IC50: 18.6 µM

## O=C1C[C@H](c2ccccc2)C2(C(=O)c3ccccc3C2=O)[C@H](c2ccccc2)C1
  EC50: > 102 µM
  IC50: > 102 µM

## CCCCCC/C=C\CCCCCCCCCC1=C(CN2CCN(C)CC2)C(=O)C=C(OC)C1=O
  EC50: > 200 µM
  IC50: 1 µM

## CC(=O)On1c(-c2ccccc2)nc2ccccc2c1=S
  EC50: > 200 µM
  IC50: 1.35 µM

## O=C(O)c1cc(O)cc(O)c1N=Nc1ccc(CCc2ccc(N=Nc3c(O)cc(O)cc3C(=O)O)cc2S(=O)(=O)O)c(S(=O)(=O)O)c1
  EC50: 2.75 µM
  IC50: 75.9 µM

## Nc1ccc(N=Nc2ccc(-c3ccc(N=Nc4c(S(=O)(=O)O)cc5cc(S(=O)(=O)O)c(N=Nc6ccc([N+](=O)[O-])cc6)c(N)c5c4O)cc3)cc2)c2cc(S(=O)(=O)O)ccc12
  EC50: > 19.5 µM
  IC50: > 19.5 µM

## CC(=O)OC1COC(N2c3ccccc3[C@@H]3CCc4c([nH]c5ccccc45)[C@@H]32)C(OC(C)=O)C1OC(C)=O (mixture of isomers)
  EC50: > 155 µM
  IC50: 19.5 µM

## CC(=O)Oc1ccc(-c2cc3ccccc3oc2=O)cc1OC(C)=O
  EC50: > 200 µM
  IC50: 8.32 µM

## C[C@@H]1OC2(O)[C@H]3CCCN3S(=O)(=O)CCN2C1=O (stereo partly specified)
  EC50: > 912 µM
  IC50: > 912 µM

## Cc1nc2cc3[nH]c4ccccc4c(=O)c3cc2s1
  EC50: > 148 µM
  IC50: > 148 µM

## CC(C)(C)OC(=O)N[C@@H](Cc1ccccc1)CN1CCCC1C(=O)OCc1ccccc1 (stereo partly specified)
  EC50: > 30.9 µM
  IC50: > 30.9 µM

## O=c1cc(CCl)nc2c3ncn(C4OC(CO)C(O)C4O)c3ncn12 (stereo unspecified)
  outcome: inactive

## N#Cc1c(Cl)c2cc([N+](=O)[O-])ccc2n2c1nc1ccccc12
  EC50: > 20 µM
  IC50: 0.813 µM

## CCOC(=O)N1C=NC23C(c4ccccc4)C(c4ccccc4)C12C(=O)N(C)C(=O)N3C (stereo unspecified)
  EC50: > 22.9 µM
  IC50: > 22.9 µM

## COC(=O)C(Cc1c[nH]c2ccccc12)NC(=O)C(Cc1c[nH]c2ccccc12)NC(=O)C(Cc1c[nH]c2ccccc12)NC(=O)C(Cc1c[nH]c2ccccc12)NC(=O)C(Cc1c[nH]c2ccccc12)NC(=O)C(Cc1c[nH]c2ccccc12)NC(=O)OC(C)(C)C (stereo unspecified) (Boc-WWWWWW-OMe; configuration not given here)
  EC50: > 100 µM
  IC50: 60.3 µM
